Active and inactive are the calls of the source.
Columns and labels:
[1] = human group III sPLA2 inhibitors, dose response, biochemical, QFRET, IC50 (AID 743457);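 also: green fluorescence rise as the enzyme cleaves BODIPY PC-A2 in liposomes; potency for inhibition of the enzyme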
[2] = Luminescence Cell-Based Dose Retest to Confirm Inhibitors of Cancer Stem Cells. [Related pubchem assays (depositor defined):AID2717, AID2721]; format: functional; details: Homo sapiens
[3] = molecular target: Eukaryotic translation initiation factor 4E (Mus musculus, UniProt P63073); experiment: eIF4E–eIF4G protein interaction inhibitors, dose response, biochemical, TR-FRET (AID 855); format: functional;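 also: potency for disrupting eIF4E binding to eIF4GI seen as loss of FRET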
[4] = molecular target: RNA-editing ligase 1, mitochondrial (Trypanosoma brucei brucei, UniProt P86926); experiment: TbREL1 ligase inhibitors, dose response, biochemical, fluorescence, Trypanosoma brucei (AID 1117295); format: functional
[5] = molecular target: Oxysterols receptor LXR-beta (Homo sapiens, UniProt P55055); format: functional, cell-based;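 also: Cell-based luminescence dose-response assay of agonist activity at LXR, run as a confirmatory counterscreen to a daf-12 agonist screen; HEK293 cells with Gal4-LXR fusion and GAL4-driven luciferase reporter; agonist potency from rising luciferase signal of a Gal4-LXR reporter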
cells [6] = experiment: cells
[7] = inhibitors of intracellular T. cruzi replication, confirmation, NIH3T3 host cells, beta-gal luminescence (AID 2044); format: functional, cell-based;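 also: intracellular parasites grown in NIH/3T3 mouse fibroblasts as host cells; luminescent beta-galactosidase reporter signal from transgenic T. cruzi replicating inside host cells; inhibitors lower the luminescence signal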
[8] = cytotoxicity toward NIH3T3 fibroblasts, dose response, counter-screen, cell-based, ATP luminescence, mouse fibroblasts (AID 2010); format: functional;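 also: cells exposed to compound for about 90 hours before reading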
[9] = MDA-MB-231 cell growth inhibition, dose response, cytotoxicity control for RAD54 inhibitor project, CellTiter-Glo luminescence, cherry-pick (AID 651692); format: functional, cell-based
[10] = molecular target: T1, DNA repair and recombination protein RAD54-like (Homo sapiens, UniProt Q92698); experiment: inhibitors of human RAD54 branch migration, confirmation, biochemical, fluorescence, cherry-picked samples, dose series (AID 651657); format: functional
T1 sequence (Q92698 whole entry): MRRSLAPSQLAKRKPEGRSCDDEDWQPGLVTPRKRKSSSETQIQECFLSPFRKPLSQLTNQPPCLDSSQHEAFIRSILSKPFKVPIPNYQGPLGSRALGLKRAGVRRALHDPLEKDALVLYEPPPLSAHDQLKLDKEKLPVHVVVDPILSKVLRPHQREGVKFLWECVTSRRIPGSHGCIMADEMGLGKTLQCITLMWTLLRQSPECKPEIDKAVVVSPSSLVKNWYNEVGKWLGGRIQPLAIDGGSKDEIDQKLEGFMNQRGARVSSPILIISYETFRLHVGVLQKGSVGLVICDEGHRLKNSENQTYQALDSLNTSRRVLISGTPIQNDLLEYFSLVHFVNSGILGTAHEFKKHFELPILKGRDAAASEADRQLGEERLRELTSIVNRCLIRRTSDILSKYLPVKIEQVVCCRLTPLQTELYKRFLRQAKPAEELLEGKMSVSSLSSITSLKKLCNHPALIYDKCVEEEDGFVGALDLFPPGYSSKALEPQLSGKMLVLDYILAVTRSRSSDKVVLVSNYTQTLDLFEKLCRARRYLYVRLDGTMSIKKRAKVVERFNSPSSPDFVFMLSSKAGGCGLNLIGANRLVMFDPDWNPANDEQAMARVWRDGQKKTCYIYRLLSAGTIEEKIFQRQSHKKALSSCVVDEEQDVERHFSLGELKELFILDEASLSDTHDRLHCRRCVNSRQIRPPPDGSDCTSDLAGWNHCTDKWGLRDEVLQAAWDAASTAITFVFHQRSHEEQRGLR

[11] = molecular target: T2, DNA repair protein RAD52 homolog (Homo sapiens, UniProt P43351); format: functional, biochemical
T2 sequence (P43351 whole entry): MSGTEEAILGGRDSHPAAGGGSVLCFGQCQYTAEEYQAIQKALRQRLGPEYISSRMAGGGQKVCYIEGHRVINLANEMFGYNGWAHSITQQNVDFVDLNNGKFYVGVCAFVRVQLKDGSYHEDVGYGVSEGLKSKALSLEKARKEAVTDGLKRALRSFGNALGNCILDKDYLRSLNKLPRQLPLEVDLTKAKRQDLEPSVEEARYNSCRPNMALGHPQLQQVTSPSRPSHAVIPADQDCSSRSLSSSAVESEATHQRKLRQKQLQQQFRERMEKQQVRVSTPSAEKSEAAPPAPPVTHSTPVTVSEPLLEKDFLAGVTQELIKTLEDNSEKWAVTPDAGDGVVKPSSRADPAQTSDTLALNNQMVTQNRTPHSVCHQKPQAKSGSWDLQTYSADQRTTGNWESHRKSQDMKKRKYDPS

[12] = HEK293T cytotoxicity, dose response, cytotoxicity control for miR-122 modulator project, cell-based, inhibitor set, cherry-pick, set 2 (AID 720697); format: functional
cells [13] = format: functional, cell-based
[14] = molecular target: T3, Sentrin-specific protease 1 (Homo sapiens, UniProt Q9P0U3); experiment: potency of human SENP1 inhibitors, dose response, biochemical, kinetic FRET (AID 651697); format: functional; details: read-out: IC50_Mean
T3 sequence (Q9P0U3 whole entry): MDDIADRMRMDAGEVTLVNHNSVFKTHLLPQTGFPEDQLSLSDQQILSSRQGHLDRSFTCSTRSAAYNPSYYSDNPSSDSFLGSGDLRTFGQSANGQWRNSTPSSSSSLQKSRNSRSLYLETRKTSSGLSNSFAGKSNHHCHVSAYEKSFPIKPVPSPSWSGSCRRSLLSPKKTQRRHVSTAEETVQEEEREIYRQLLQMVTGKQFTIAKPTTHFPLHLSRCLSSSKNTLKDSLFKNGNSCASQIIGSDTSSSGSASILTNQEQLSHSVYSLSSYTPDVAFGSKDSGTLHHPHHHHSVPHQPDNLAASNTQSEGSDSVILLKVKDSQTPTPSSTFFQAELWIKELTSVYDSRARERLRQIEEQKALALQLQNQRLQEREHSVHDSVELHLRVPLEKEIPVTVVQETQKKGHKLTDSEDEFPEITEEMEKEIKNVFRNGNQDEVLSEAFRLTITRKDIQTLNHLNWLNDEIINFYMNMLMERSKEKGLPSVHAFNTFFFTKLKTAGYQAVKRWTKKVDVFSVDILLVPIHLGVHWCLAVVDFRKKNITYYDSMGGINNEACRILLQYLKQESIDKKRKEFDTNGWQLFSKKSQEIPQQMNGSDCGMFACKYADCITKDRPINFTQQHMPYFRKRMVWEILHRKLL

[15] = molecular target: T3, Sentrin-specific protease 1; experiment: Dose response confirmation of small molecule inhibitors of the catalytic domain of the SUMO protease, SENP1 in a FRET assay.; format: functional; details: read-out: IC50_Mean

Sequence of Oxysterols receptor LXR-beta (P55055 whole entry, the tested form may be a part): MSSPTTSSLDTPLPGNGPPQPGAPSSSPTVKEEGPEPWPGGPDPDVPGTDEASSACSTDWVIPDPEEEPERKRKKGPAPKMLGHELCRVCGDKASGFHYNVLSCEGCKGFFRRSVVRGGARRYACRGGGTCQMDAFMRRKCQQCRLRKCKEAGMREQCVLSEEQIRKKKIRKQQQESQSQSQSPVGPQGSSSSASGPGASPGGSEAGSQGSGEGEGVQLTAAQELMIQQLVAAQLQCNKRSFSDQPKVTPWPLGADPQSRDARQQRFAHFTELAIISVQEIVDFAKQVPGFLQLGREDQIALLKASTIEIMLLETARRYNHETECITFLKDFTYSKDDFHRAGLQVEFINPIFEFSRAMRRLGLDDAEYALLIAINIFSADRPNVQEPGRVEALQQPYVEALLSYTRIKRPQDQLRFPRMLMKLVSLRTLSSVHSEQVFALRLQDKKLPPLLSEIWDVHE
Sequence of RNA-editing ligase 1, mitochondrial (P86926 whole entry, the tested form may be a part): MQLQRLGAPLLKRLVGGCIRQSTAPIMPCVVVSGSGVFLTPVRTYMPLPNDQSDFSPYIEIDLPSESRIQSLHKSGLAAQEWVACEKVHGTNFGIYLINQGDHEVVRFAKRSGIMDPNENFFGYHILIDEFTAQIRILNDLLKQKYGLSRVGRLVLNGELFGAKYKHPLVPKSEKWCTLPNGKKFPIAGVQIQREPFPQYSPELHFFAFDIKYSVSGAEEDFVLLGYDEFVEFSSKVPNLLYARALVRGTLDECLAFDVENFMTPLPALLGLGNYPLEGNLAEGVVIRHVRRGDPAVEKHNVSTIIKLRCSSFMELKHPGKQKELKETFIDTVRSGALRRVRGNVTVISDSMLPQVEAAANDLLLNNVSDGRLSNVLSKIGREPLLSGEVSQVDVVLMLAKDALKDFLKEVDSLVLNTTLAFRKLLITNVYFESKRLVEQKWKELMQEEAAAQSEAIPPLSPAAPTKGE
Sequence of Eukaryotic translation initiation factor 4E (P63073 whole entry): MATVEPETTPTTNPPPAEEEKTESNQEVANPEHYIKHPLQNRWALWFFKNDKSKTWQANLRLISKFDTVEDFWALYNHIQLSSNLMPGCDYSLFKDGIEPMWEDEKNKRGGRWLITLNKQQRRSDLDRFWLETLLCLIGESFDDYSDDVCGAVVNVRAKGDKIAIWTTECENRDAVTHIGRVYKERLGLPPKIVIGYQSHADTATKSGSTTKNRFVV

CC(C)Oc1ccc(CC(=O)NN=C(S)Nc2ccccc2)cc1
IC50 [1]: > 122 µM (inactive)

COc1ccc(CN2C(=O)c3cccnc3C2Nc2cc(Cl)ccc2OC)cc1 (stereo not drawn)
AC50 [2]: > 195 µM (inactive)
IC50 [3]: 14.4 µM (active)
IC50 [4]: 16.1 µM (inactive)

Fc1cccc(Cl)c1/C=C/c1cnc2ccccc2n1
EC50 [5]: > 67.5 µM (inactive)
EC50 (cells [6]): > 67.5 µM (inactive)

CCN(CC)CCCN(C(=O)c1ccco1)c1nc(-c2ccc(Cl)cc2)cs1
EC50 [7]: 0.87 µM (active)
EC50 [8]: 9.32 µM (active)
AC50 [9]: 22.9 µM (active)
AC50 [10]: 45.1 µM (active)
AC50 [11]: 19.2 µM (active)

CCCCN1C=C(C(=O)OC)C(c2ccccc2C(F)(F)F)C(C(=O)OC)=C1
AC50 [12]: 8.63 µM (active)

Cc1c(Cl)c(C(=O)NN=C(S)Nc2ccccc2)nn1C
IC50 [1]: > 122 µM (inactive)

CCc1nnc(NS(=O)(=O)c2ccc(N/C=C3/C(=O)NC(=O)N(c4ccccc4)C3=O)cc2)s1
IC50 (cells [13]): 64.4 µM (inactive)

Cc1cc2c(cc1C)NP(=S)(c1ccccc1)N2
EC50 [5]: > 67.6 µM (inactive)
EC50 (cells [6]): > 67.6 µM (inactive)

Cc1c(N2C(=O)/C(=C/c3ccc(N(C)C)cc3)N(C)C2=S)c(=O)n(-c2ccccc2)n1C
IC50 [14]: 19.5 µM (active)
IC50 [15]: 36.2 µM (inactive)

Source: ChEMBL document CHEMBL1201862, “PubChem BioAssay data set” (2004)
